Measurements published in ChEMBL document CHEMBL1201862, “PubChem BioAssay data set” (2004).
The source made the active and inactive calls.

How the values were obtained:
Protein RecA = target: T1, Protein RecA (Mycobacterium tuberculosis, UniProt P9WHJ3); assay: Fluorescence Cell-Free Homogeneous Dose Retest to Identify Inhibitors of RecA-Intein Splicing Activity. [Related pubchem assays (depositor defined):AID2097, AID2223, AID489010, AID492950]; type: functional
T1 sequence (P9WHJ3 whole entry): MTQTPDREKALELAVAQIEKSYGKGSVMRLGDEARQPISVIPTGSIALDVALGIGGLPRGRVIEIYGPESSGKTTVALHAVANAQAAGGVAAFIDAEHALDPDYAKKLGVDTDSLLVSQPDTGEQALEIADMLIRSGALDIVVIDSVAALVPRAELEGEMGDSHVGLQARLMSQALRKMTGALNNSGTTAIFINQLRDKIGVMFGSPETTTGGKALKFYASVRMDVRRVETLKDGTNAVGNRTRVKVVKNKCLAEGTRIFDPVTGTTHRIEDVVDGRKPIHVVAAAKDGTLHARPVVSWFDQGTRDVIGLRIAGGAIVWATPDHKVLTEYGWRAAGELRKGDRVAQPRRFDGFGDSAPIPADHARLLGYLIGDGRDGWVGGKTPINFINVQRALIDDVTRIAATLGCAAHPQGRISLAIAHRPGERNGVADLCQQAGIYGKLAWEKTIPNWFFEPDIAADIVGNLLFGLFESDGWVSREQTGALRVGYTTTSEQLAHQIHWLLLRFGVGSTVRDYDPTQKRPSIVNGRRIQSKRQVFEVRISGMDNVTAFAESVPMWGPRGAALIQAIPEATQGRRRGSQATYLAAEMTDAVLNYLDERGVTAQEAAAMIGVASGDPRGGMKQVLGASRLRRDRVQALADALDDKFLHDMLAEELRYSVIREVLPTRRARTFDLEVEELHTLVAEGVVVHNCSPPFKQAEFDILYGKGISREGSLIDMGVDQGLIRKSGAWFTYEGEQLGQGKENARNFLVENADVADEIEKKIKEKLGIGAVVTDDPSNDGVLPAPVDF

[1] = inhibitors of SNCA 5'UTR-driven reporter translation, confirmation, H4 neuroglioma cells, luminescence (AID 1988); type: functional, cell-based
[2] = Luminescence Cell-Based Dose Response HTS to Identify Inhibitors of 5'UTR Stem-Loop Driven Prion Protein mRNA Translation in H4 Neuroglioblastoma Cells. [Related pubchem assays: 1827 (Project Summary), 1813 (Primary HTS)]; type: functional
[3] = target: E3 ubiquitin-protein ligase Mdm2 (Homo sapiens, UniProt Q00987); assay: enhancers of MDM2-luciferase reporter signal, concentration-effect titration, project on inhibitors of MDM2 ubiquitin ligase, cellular assay, luminescent readout, 384-well plate format (AID 1394); type: functional;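 also: MDM2 E3 inhibitors raise luminescence so EC50 is for signal enhancement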
[4] = target: T2, Kappa-type opioid receptor (Homo sapiens, UniProt P41145); type: functional
[5] = target: T3, Delta-type opioid receptor (Homo sapiens, UniProt P41143); assay: HTS Image-Based Screen for Agonists of the DOR Receptor. [Related pubchem assays (depositor defined):AID1777, AID1786, AID2133]; type: functional
[6] = inhibitors of firefly luciferase expression or activity, dose response, H4 neuroglioma cells, luminescence (AID 1990); type: functional, cell-based
[7] = target: T3, Delta-type opioid receptor; assay: HTS Image-Based Screen for Antagonists of the DOR Receptor. [Related pubchem assays (depositor defined):AID1777, AID1785, AID1786, AID2133]; type: functional
Beta-galactosidase = Beta-galactosidase (Escherichia coli, UniProt Q8VNN2); type: functional
[8] = target: T4, Replicative DNA helicase DnaB (Mycobacterium tuberculosis, UniProt P9WMR3); assay: DnaB intein splicing inhibitors, dose response, biochemical, cell-free fluorescence (AID 449749); type: functional
T4 sequence (P9WMR3 whole entry): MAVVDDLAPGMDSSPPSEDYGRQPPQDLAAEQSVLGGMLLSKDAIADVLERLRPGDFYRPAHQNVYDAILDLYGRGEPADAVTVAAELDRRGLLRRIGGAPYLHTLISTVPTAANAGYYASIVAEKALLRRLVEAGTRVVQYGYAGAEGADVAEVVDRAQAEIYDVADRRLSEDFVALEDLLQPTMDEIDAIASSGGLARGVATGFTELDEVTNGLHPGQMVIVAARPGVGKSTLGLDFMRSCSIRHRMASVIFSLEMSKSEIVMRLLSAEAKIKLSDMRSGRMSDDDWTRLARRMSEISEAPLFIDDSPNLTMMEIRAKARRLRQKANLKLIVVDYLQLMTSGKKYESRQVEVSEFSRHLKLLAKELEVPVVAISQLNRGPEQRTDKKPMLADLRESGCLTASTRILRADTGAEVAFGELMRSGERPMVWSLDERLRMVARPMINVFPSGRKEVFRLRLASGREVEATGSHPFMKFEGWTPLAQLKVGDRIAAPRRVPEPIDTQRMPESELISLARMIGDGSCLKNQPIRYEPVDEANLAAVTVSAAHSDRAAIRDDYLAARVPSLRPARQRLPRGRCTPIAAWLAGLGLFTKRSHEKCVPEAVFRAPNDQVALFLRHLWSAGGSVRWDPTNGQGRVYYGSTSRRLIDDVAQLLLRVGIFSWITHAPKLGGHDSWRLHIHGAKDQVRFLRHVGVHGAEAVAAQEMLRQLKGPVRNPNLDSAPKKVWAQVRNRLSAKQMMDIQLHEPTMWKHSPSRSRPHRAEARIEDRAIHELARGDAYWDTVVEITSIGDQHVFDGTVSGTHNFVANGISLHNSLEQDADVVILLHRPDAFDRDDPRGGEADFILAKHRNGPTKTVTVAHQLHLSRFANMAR

[9] = target: G-protein coupled receptor 55 (Homo sapiens, UniProt Q9Y2T6); assay: GPR55 antagonists blocking LPI-driven arrestin recruitment, primary screen, imaging, U2OS, beta-arrestin-GFP, LPI agonist (AID 2013); type: functional;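 also: antagonist potency measured as reduced agonist-driven arrestin aggregation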
Mu-type opioid receptor [10] = target: T5, Mu-type opioid receptor (Homo sapiens, UniProt P35372); assay: HTS Image-Based Screen for Agonists of the MOR Receptor. [Related pubchem assays (depositor defined):AID1777, AID1785, AID1786, AID2133]; type: functional
[11] = target: T2, Kappa-type opioid receptor; type: functional; remark: listed apart in the source
[12] = target: G-protein coupled receptor 35 (Homo sapiens, UniProt Q9HC97); assay: GPR35 antagonists blocking zaprinast-driven arrestin recruitment, primary screen, imaging, U2OS, beta-arrestin-GFP, zaprinast agonist (AID 2058); type: functional;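 also: antagonist potency meaning inhibition of agonist-induced arrestin redistribution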
CAAX prenyl protease 2 [13] = target: CAAX prenyl protease 2 (Saccharomyces cerevisiae S288c, UniProt Q03530); type: biochemical
CAAX prenyl protease 2 [14] = target: CAAX prenyl protease 2 (Homo sapiens, UniProt Q9Y256); assay: human Rce1 protease inhibitors, dose response, biochemical, yeast membranes, quenched-peptide fluorescence, cherry-pick (AID 588849)
Trypsin = Trypsin (Sus scrofa, UniProt P00761); assay: porcine trypsin inhibitors, dose response, selectivity assay for Rce1 protease inhibitor project, biochemical, quenched peptide fluorescence, cherry-pick (AID 488789)
[15] = target: T2, Kappa-type opioid receptor; assay: SAR analysis of Antagonists of the Kappa Opioid Receptor (KOR) using an Image-Based Assay - Set 3. [Related pubchem assays (depositor defined):AID1777, AID1785]; type: functional
[16] = target: T2, Kappa-type opioid receptor; assay: SAR analysis of small molecule antagonists of the kappa opioid receptor via a luminescent beta-arrestin assay - Set 3. [Related pubchem assays (depositor defined):AID1777, AID1778, AID1785, AID1786, AID1966, AID2133, AID2136, AID2285, AID2495]; type: functional
Mu-type opioid receptor [17] = target: T5, Mu-type opioid receptor; assay: SAR Analysis of Antagonists of the MOR Receptor using an Image-Based Assay - Set 3. [Related pubchem assays (depositor defined):AID1777, AID1785, AID1786, AID1966, AID2133, AID2136, AID2284, AID2285, AID2420]; type: functional
[18] = target: T3, Delta-type opioid receptor; assay: SAR Analysis of Antagonists of the DOR Receptor using an Image-Based Assay - Set 3. [Related pubchem assays (depositor defined):AID1777, AID1785]; type: functional
[19] = target: T6, Voltage-gated N-type calcium channel alpha-1B subunit/Amyloid beta A4 precursor protein-binding family A member 1 (Homo sapiens, UniProt Q00975+Q02410); type: protein assay
Large T antigen = Large T antigen (Simian virus 40, UniProt P03070); type: functional, Betapolyomavirus macacae;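 also: Confirmatory-stage PubChem screen for compounds that inhibit SV40 T antigen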
[20] = target: T6, Voltage-gated N-type calcium channel alpha-1B subunit/Amyloid beta A4 precursor protein-binding family A member 1; type: protein assay; remark: listed apart in the source

T3 sequence (P41143 whole entry): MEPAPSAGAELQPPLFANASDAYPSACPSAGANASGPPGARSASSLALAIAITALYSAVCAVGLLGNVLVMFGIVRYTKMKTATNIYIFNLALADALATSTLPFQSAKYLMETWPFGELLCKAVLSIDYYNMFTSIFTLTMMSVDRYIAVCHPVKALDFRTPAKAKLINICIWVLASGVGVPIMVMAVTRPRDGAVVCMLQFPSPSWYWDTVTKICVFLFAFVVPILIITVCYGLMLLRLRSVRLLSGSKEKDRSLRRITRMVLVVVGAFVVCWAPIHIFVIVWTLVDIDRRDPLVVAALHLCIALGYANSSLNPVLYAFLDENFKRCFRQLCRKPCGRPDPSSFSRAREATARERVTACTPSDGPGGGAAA
T2 sequence (P41145 whole entry): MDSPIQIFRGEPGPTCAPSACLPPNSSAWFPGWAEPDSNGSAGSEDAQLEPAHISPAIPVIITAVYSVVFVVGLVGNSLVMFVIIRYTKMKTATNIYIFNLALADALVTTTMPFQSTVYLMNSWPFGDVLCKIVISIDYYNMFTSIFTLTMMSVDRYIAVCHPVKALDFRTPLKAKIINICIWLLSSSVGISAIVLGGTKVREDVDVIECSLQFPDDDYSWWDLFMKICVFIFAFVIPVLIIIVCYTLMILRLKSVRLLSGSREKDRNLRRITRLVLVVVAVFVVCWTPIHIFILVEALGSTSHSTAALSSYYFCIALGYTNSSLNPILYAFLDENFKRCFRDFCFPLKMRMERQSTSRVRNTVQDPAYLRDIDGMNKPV
T5 sequence (P35372 whole entry): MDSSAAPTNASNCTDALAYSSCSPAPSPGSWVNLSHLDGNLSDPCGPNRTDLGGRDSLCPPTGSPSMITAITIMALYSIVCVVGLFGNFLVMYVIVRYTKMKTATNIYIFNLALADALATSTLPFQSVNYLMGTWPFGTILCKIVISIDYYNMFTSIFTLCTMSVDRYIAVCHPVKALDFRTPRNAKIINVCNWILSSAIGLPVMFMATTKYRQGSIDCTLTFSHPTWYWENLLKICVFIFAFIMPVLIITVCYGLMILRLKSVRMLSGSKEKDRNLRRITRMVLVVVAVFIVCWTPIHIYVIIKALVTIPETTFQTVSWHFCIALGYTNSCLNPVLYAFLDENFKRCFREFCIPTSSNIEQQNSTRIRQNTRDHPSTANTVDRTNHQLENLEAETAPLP
T6 sequence (Q00975 whole entry): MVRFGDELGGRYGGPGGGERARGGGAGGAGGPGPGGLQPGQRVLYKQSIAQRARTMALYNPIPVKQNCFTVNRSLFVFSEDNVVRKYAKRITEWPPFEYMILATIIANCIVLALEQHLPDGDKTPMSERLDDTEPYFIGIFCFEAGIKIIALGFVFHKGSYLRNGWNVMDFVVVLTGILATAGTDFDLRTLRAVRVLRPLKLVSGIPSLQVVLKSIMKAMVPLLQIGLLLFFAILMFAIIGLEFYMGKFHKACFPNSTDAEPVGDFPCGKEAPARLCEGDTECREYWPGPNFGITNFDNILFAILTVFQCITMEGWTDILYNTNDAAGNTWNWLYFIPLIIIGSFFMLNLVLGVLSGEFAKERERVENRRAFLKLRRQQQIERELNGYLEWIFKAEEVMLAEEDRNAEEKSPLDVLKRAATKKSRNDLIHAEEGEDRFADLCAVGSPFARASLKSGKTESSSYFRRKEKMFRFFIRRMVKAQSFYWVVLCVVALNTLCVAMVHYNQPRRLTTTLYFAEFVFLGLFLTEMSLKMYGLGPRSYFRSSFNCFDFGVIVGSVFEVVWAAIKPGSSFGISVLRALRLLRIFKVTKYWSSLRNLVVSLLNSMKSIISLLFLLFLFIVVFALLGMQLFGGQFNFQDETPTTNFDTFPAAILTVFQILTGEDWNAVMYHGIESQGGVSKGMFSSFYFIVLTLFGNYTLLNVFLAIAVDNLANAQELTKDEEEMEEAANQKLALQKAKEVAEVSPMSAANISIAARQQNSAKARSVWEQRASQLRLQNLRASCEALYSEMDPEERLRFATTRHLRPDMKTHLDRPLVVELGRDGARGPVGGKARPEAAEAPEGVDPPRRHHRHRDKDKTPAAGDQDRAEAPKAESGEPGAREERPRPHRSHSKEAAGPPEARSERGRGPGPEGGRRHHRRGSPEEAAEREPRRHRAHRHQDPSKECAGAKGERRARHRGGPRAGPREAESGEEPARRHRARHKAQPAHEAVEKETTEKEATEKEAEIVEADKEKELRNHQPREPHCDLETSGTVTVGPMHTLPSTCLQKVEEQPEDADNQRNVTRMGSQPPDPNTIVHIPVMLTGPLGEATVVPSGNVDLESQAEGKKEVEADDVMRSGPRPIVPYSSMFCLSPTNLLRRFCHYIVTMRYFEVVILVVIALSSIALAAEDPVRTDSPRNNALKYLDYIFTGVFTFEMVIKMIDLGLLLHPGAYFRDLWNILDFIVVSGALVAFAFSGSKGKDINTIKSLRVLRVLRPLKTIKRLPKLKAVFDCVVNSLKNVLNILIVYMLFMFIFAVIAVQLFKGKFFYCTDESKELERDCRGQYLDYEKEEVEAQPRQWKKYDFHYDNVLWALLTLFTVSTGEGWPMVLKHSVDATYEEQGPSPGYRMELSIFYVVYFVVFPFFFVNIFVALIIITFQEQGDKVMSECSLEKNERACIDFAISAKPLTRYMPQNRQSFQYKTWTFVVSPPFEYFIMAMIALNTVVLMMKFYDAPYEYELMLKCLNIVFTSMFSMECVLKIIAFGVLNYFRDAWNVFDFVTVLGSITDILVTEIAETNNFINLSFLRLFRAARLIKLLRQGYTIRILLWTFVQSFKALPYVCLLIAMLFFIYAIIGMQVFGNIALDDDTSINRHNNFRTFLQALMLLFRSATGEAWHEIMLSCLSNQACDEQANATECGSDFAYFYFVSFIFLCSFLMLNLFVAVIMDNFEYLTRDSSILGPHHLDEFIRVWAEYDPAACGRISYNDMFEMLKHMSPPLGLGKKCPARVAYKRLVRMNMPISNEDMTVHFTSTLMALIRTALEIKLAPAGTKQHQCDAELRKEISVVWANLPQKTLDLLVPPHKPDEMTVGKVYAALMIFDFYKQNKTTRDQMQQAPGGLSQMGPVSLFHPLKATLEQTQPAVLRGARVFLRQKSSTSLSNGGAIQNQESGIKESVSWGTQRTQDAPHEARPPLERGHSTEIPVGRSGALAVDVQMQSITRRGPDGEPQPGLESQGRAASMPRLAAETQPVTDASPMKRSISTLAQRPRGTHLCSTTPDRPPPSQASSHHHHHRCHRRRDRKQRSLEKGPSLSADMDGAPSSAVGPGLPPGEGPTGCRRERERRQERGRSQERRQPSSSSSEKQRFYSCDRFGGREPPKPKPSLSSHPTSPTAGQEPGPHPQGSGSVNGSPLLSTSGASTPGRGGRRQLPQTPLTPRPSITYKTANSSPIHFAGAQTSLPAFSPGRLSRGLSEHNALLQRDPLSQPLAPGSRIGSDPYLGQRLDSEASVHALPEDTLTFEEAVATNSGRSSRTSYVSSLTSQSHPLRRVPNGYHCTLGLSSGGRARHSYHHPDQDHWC
T6 sequence (Q02410 whole entry): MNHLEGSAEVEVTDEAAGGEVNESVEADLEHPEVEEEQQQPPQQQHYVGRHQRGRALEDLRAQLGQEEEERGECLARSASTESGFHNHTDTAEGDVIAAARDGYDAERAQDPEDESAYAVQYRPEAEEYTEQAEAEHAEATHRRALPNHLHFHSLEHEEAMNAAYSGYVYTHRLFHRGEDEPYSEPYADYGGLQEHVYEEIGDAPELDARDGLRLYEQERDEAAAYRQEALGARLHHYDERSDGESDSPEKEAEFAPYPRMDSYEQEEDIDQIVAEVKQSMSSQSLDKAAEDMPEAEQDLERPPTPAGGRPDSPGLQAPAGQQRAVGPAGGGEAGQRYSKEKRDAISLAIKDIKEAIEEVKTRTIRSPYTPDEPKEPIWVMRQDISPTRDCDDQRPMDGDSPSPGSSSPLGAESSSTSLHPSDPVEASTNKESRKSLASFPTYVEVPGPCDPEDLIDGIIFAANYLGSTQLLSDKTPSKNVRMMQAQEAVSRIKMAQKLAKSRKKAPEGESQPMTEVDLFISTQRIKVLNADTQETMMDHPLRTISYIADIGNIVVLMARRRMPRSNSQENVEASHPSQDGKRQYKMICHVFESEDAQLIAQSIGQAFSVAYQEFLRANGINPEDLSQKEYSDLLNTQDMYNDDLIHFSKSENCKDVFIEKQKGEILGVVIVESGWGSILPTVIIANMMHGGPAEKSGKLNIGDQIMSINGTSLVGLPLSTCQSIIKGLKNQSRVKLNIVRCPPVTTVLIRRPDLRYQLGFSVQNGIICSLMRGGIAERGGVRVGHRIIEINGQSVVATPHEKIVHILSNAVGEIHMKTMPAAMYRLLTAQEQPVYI
Chain of Large T antigen (P03070 whole entry): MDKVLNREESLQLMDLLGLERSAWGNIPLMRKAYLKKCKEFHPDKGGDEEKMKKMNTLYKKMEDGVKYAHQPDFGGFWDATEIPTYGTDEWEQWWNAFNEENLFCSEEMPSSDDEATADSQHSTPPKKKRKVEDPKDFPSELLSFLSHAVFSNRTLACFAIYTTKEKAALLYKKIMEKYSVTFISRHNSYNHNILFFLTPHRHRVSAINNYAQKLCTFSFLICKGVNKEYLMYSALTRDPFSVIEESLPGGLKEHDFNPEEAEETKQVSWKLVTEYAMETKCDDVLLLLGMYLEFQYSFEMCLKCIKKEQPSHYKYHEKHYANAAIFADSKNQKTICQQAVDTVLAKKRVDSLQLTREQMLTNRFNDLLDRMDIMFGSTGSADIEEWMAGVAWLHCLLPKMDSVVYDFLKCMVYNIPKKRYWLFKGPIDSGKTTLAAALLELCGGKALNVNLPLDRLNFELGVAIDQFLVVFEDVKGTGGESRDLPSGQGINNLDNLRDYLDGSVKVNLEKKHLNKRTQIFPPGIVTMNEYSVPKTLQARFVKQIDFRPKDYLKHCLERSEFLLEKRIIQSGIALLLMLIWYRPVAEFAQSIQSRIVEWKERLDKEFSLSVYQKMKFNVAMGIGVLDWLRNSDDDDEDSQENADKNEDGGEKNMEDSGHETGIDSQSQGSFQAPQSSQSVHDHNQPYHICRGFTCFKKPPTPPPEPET

## CC(NC(=O)Cn1ncc(Cl)c(Cl)c1=O)C12CC3CC(CC(C3)C1)C2 (centres undefined)
Protein RecA
  EC50: 0.047 µM (active)
[1]
  EC50: > 120 µM (not active)
[2]
  EC50: 6.41 µM (active)
[3]
  EC50: 1.55 µM (active)
[4]
  IC50: 2.14 µM (active)
[5]
  EC50: > 32 µM (inactive)
[6]
  EC50: 8.55 µM (active)
[7]
  IC50: 6.48 µM (active)
Beta-galactosidase
  EC50: > 31.5 µM (inactive)
[8]
  AC50: 0.441 µM (active)
[9]
  IC50: 3.92 µM (active)
Mu-type opioid receptor [10]
  EC50: > 32 µM (inactive)
[11]
  IC50: 2.63 µM
[12]
  IC50: 1.07 µM (active)

## COc1ccc(-c2cc3ccc(OCc4nn[nH]n4)cc3oc2=O)cc1OC
CAAX prenyl protease 2 [13]
  AC50: 20.3 µM (active)
CAAX prenyl protease 2 [14]
  AC50: 1.71 µM (active)
Trypsin
  AC50: 2.34 µM (active)

## CCc1ccc(S(=O)(=O)NCc2ccc(C(=O)NCCN(Cc3ccccc3)Cc3ccccc3)cc2)cc1
[15]
  IC50: > 32 µM (inactive)
[16]
  IC50: > 20 µM (inactive)
Mu-type opioid receptor [17]
  IC50: > 32 µM (inactive)
[18]
  IC50: > 32 µM (inactive)

## N#Cc1c(O)nsc1Nc1ccccc1C(F)(F)F
[19]
  IC50: > 50 µM (inactive)
Large T antigen
  IC50: 56.5 µM (active)
[20]
  IC50: 7.54 µM (active)
